Experimental data: US7491819B1 (priority 2004, dated 2009)
Read-outs that look alike come from different tables or passages of the source.

System: HIV-1 303B
Experiment: microbe, parasite or virus in culture
Assay type: cell-based
Conditions: for overall antiviral effect of the two-drug combination with Example 19 (in words): classification from combination indices and confidence intervals; for Combination Indices at 50% HIV Inhibition (Confidence Interval) / Combination Indices at 75% HIV Inhibition (Confidence Interval) / Combination Indices at 90% HIV Inhibition (Confidence Interval): in combination with Example 19, 95% CI in parenthesis
Description: Virus and cell lines. The T-cell line, MT-2, was obtained through the AIDS Research and Reference Reagent Program. MT-2 cells were sub-cultured twice a week in RPMI 1640 medium supplemented with 10% fetal bovine serum, 2 mM L-glutamine, and 10 mM HEPES buffer pH 7.5. The HIV-1303B virus is a molecular clone derived from the NL4-3 strain of HIV-1 that was obtained from the NIH AIDS Research and Reference Reagent Program. For combinations with enfuvirtide, the NL36G virus was used. […] Virus stocks were made by transfecting 293T cells with a proviral DNA clone using LipofectAMINE PLUS (Invitrogen), according to the manufacturer's instructions. Three days post-transfection, virus was harvested and passaged once in MT-2 cells before titration in MT-2 cells.
Chemicals. Example 19, atazanavir, didanosine, stavudine, efavirenz, and enfuvirtide (T-20) were synthesized by Bristol-Myers Squibb using published or known reactions. […] Tenofovir was tested as tenofovir disopoxil fumarate. Zidovudine and zalcitabine were purchased from Sigma, and emtricitabine from Moravek Biochemicals.
Drug Susceptibility and Cytotoxicity Assays. For drug susceptibility assays, MT-2 cells were infected with HIV-1 303B (or NL36G), at an MOI of 0.001, and seeded into 96-well microtiter plates (2.5×10^5 cells/ml) containing serial dilutions of test compounds. […] Each drug ratio consisted of an array of 3-fold serial dilutions, and was performed with eight or more replicas on separate multi-well plates. HIV infected cells were incubated at 37° C. in 5% CO2, and on day five post-infection, the extent of virus replication was measured by determining cell viability using the CellTiter 96 Aqueous Non-Radioactive Cell Proliferation Assay (Promega). […] Cytotoxicity assays were performed in parallel with the combination experiments. Here, uninfected cells were exposed to the same drug combinations, and assayed after five days for cell viability using the MTS assay.
Analysis of Drug Combination Effects. For determination of combination index (CI) values, drugs were diluted in a fixed ratio and multiple ratios were analyzed. The drug serial dilutions spanned a range of concentrations near the EC50 value of each compound, so that equivalent antiviral activities could be compared. The normalized responses from each therapy are fit to the four-parameter logistic model with a common minimum and maximum across all therapies. Conceptually, this equation can be written as
In this equation, Fa stands for “fraction affected,” and represents the fraction of the viral load that has been inactivated. […] The EC50, represented by the Ci in the above equation, is the drug concentration that is expected to reduce the amount of virus by 50%, and the Bi are the parameters that reflects the slope of the concentration-response curve. For this assay, A is the bottom plateau common to all curves, D is the common top plateau, Bj is the “slope” parameter for the jth therapy, and Cj is the concentration that produces an effect equal to the average of A and D for the jth therapy. Therapies 1 and 2 correspond to mono therapies 1 and 2, respectively. Therapies 3, 4, and 5 correspond to the three combination therapies. EC50 values for each drug were determined from the single drug experiments, using the above equation. The equation was fit using a nonlinear regression routine (Proc Nlin) in PC SAS version 8.2 (SAS Institute Inc.).
To assess antiviral effects of different drug combination treatments, combination indices (CIs) were calculated according to Chou and Rideout. The combination index was computed as
In this equation [Dm]1 and [Dm]2 are the concentrations of drugs that would individually produce a specific level of effect, while [D]1 and [D]2 are the concentrations of drugs in combination that would produce the same level of effect.
Theoretically, additivity is implied if the CI is equal to one, synergy if the CI is less than one, and antagonism if the CI is greater than one.

[1] = Human immunodeficiency virus 1, MT2, 120 h
[2] = EC50 ratio Example 19:comparator 1:1
[3] = EC50 ratio Example 19:comparator 1:2.5
[4] = EC50 ratio Example 19:comparator 2.5:1

Row | SMILES | EC50 [1] [nM] | overall antiviral effect of the two-drug combination with Example 19 (in words) | Combination Indices at 50% HIV Inhibition (Confidence Interval) [2] | Combination Indices at 75% HIV Inhibition (Confidence Interval) [2] | Combination Indices at 90% HIV Inhibition (Confidence Interval) [2] | Combination Indices at 50% HIV Inhibition (Confidence Interval) [3] | Combination Indices at 75% HIV Inhibition (Confidence Interval) [3] | Combination Indices at 90% HIV Inhibition (Confidence Interval) [3] | Combination Indices at 50% HIV Inhibition (Confidence Interval) [4] | Combination Indices at 75% HIV Inhibition (Confidence Interval) [4] | Combination Indices at 90% HIV Inhibition (Confidence Interval) [4] | EC50 (single drug, MT-2 cells, MOI 0.001, day five, MTS cell viability, read-out: EC50) [nM]
1 | CC(C)(C)NC(=O)[C@@H]1C[C@@H]2CCCC[C@@H]2CN1C[C@@H](O)[C@H](Cc1ccccc1)NC(=O)[C@H](CC(N)=O)NC(=O)c1ccc2ccccc2n1 [Saquinavir, saquinavir] | 11 | confidence interval is below one at all concentrations and effective levels | 0.77 (0.70, 0.84) | 0.67 (0.58, 0.75) | 0.58 (0.47, 0.69) | 0.43 (0.38, 0.48) | 0.51 (0.42, 0.59) | 0.59 (0.44, 0.74) | 0.81 (0.72, 0.89) | 0.77 (0.66, 0.89) | 0.74 (0.57, 0.91) | –
2 | Cc1cn([C@H]2C=C[C@@H](CO)O2)c(=O)[nH]c1=O [Stavudine, stavudine] | 241 | synergistic | 0.52 (0.43, 0.61) | 0.46 (0.36, 0.56) | 0.42 (0.26, 0.57) | 0.60 (0.48, 0.71) | 0.60 (0.46, 0.74) | 0.61 (0.40, 0.83) | 0.70 (0.57, 0.84) | 0.63 (0.48, 0.79) | 0.58 (0.37, 0.81) | –
3 | C[C@H](Cn1cnc2c(N)ncnc21)OCP(=O)(O)O [Tenofovir, tenofovir] | – | synergistic to additive | 0.66 (0.57, 0.75) | 0.54 (0.45, 0.62) | 0.43 (0.33, 0.53) | 0.68 (0.59, 0.77) | 0.60 (0.48, 0.72) | 0.52 (0.36, 0.69) | 0.90 (0.77, 1.04) | 0.84 (0.67, 1.01) | 0.79 (0.55, 1.03) | 18
4 | Nc1ccn([C@H]2CC[C@@H](CO)O2)c(=O)n1 [Zalcitabine, zalcitabine] | 124 | synergistic to additive | 0.61 (0.48, 0.73) | 0.56 (0.39, 0.73) | 0.53 (0.28, 0.79) | 0.55 (0.44, 0.66) | 0.40 (0.31, 0.49) | 0.30 (0.18, 0.42) | 0.80 (0.62, 0.97) | 0.82 (0.58, 1.07) | 0.86 (0.46, 1.26) | –
5 | Cc1cn([C@H]2C[C@H](N=[N+]=[N-])[C@@H](CO)O2)c(=O)[nH]c1=O [Zidovudine] | 12 | synergistic to additive | 0.59 (0.49, 0.69) | 0.56 (0.41, 0.70) | 0.54 (0.36, 0.70) | 0.65 (0.56, 0.75) | 0.73 (0.59, 0.86) | 0.81 (0.57, 1.06) | 0.72 (0.61, 0.83) | 0.83 (0.64, 1.02) | 0.96 (0.63, 1.30) | –
